In US9775895B2, “HIV therapeutics and methods of making and using same” (priority 2012, dated 2017):
Non-standard residues stand in square brackets, D forms with d. Residues, ends and D or L forms follow the SMILES beside them. No end group written: not given here. sY = N[C@@H](Cc1ccc(OS(=O)(=O)O)cc1)C(=O)O

Columns and labels:
[1] = tested on: HIV-1 BaL; type: cell-based; conditions: acute infection, primary human CD4+ T cells; read-out: half maximal inhibitory concentration (IC50) for infection by HIV-1 BaL
Excerpt: (§1) FIGS. 3A-3H are a series of graphs illustrating that a tyrosine-sulfated peptide containing the V2 α-helix binds to gp120, competes with an anti-CCR5-binding site antibody for HIV-1 virion binding, and blocks HIV-1 entry, infection and fusion. (A) Effect of tyrosine-sulfated V2-loop (pV2α-Tys) and CCR5 N-terminus (pCCR5-Tys) mimetic peptides on HIV-1 virion capture by mAb 412d, a sulfated mAb directed to the CCR5-binding site at the base of V3. Unsulfated homologous peptides (pV2α and pCCR5) were tested in parallel as controls. Infectious viral stocks from HIV-1 BaL were pre-treated with the peptides (each at 50 μM) and then incubated with immunomagnetic beads armed with mAb 412d; beads armed with mAb 2G12 (directed to a glycan-dependent epitope on the gp120 outer domain) were used in parallel as a control. Asterisks denote significant differences with the untreated control (p<0.05 by unpaired Student's t test). (B) Dose-dependent effect of peptides pV2α and pV2α-Tys on cell-free infection by HIV-1 BaL in primary CD4^+ T cells. […] (F) Binding of gp120 to immobilized peptide pV2α as assessed by surface plasmon resonance analysis. […] (H) Comparison between the experimentally determined V3 interaction of the tyrosine sulfated CDRH3 region of mAb 412d and the modeled V3 interaction of a tyrosine sulfated peptide derived from the central region of V2. […]

[2] = tested on: primary CD4+ T cells; test: Cell viability of primary CD4+ T cells by timed flow cytometry counting; type: cell-based, human; conditions: activated primary CD4+ T cells cultured 7 days
Protocol: FIG. 9 is a graph illustrating the effect of V2-derived peptides pV2α and pV2α-Tys on viability of primary CD4^+ T cells. Purified human peripheral blood CD4^+ T cells previously activated in vitro with phytohemagglutinin and IL-2 were treated with each peptide at the indicated concentrations and cultured for 7 days. Cell viability was measured by quantitative counting using timed flow cytometry on a FACSCanto II.
HIV-1 isolates, infection, entry and cell viability assays. Details about the HIV-1 isolates used in the this study, the infection assay, the entry assay and the cell viability assay have been reported previously (Auerbach et al., Proc Natl Acad Sci USA 109, 9569-9574, 2012).

[3] = biological target: T1, recombinant soluble gp120 (isolate YU2) (Human immunodeficiency virus type 1 group M subtype B, UniProt P35961); test: Surface plasmon resonance, gp120 binding to immobilized biotinylated peptide; parameters: species or system HIV-1
T1 construct: recombinant soluble gp120 (isolate YU2)
Excerpt: Binding of gp120 to immobilized peptide pV2α as assessed by surface plasmon resonance analysis (FIG. 3F). The biotinylated peptide was bound to a neutravidin-coated CM3 sensor chip and recombinant soluble gp120 (isolate YU2) was flown over the chip in the liquid phase. […] Residuals of the fit, which has an RMSD of 0.62 RU shown twice on different scales to facilitate their critical inspection (lower two graphs).

[4] = biological target: T2, recombinant soluble CD4 (Homo sapiens, UniProt P01730); test: Surface plasmon resonance, soluble CD4 binding to immobilized biotinylated peptide; conditions: koff-KD distribution model
T2 construct: recombinant soluble CD4 was flown over the chip
Protocol: FIG. 12 is a graph illustrating binding of recombinant soluble CD4 to peptide pV2α. The biotinylated peptide was bound to a neutravidin-coated CM3 sensor chip and recombinant soluble CD4 was flown over the chip in the liquid phase. Experimental binding traces were recorded for sCD4 (at the concentration of […]) binding to 235 RU pV2α at a flow rate of […]; best fit traces (red lines) were derived from modeling with koff−KD distribution. (Lower graphs) Residuals of the fit, which has an rmsd of 0.47 RU shown twice on different scales to facilitate their critical inspection.
Binding of recombinant soluble CD4 to peptide pV2α was evaluated by surface plasmon resonance (FIG. 12). The biotinylated peptide was bound to a neutravidin-coated sensor chip and recombinant soluble CD4 was flown over the chip in the liquid phase. Experimental binding traces were recorded for sCD4 (at the concentration of […]) binding to 235 RU pV2α at a flow rate of […]; best fit traces (red lines) were derived from modeling with koff−KD distribution.

[5] = tested on: gp120 tyrosine sulfation (sulfotransferases); test: Western blot of tyrosine sulfation in recombinant gp120 produced in CHO cells; type: cell-based; conditions: 30 mM; recombinant gp120 BaL
[6] = tested on: HeLa and HEK293 cells; test: Viability of cell lines by timed flow cytometry counting; type: cell-based; conditions: 30 mM, 72 hrs
Protocol: FIGS. 2L-2O illustrate the different efficiency of V2 tyrosine sulfation in recombinant gp120 produced in epithelial cell lines versus virion-associated gp120 produced by primary CD4^+ T cells. (L) Detection of sulfated tyrosines by Western blot in recombinant gp120 produced in CHO cells. (M) Lack of adverse effects of sodium chlorate treatment or TPST2 overexpression on the viability of HeLa and HEK293 cells. The cell lines were treated with 30 mM sodium chlorate (NaClO3) or transfected with a plasmid vector expressing TPST2 and cultured for 72 hrs. Cell viability was measured by quantitative counting using timed flow cytometry on a FACSCanto II and is expressed as percent viable cell recovery. (N) Side-by-side comparison of the extent of tyrosine sulfation detected by Western blot in a reference sulfated mAb (412d), in virion-associated gp120 produced by infected primary human CD4^+ T cells (V-gp120), and in recombinant gp120 produced in HEK293 cells (R-gp120). Identical amounts of mAb 412d and purified gp120 were loaded on the gels. For V-gp120, the protein was immunoprecipitated directly from the infectious viral stocks. The antibodies used for Western blots and the methods used for relative quantification were the same as in (L). […]

[7] = tested on: HIV-1 BaL ΔV2 gp160; test: Fusion neutralization of HIV-1 BaL ΔV2 with or without NaClO3 pre-treatment; type: cell-based; conditions: 30 mM, 72 hrs pre-treatment
[8] = tested on: HIV-1 BaL virions captured by mAb 412d (CCR5-binding site at the base of V3); test: HIV-1 virion-capture assay with mAb 412d-armed immunomagnetic beads; conditions: peptides at 50 μM; virions pre-treated with sCD4 5 μg/ml
Excerpt: as §1

[9] = tested on: CD4-activated gp120 (BaL) binding to mAb 412d; test: Surface plasmon resonance, peptide effect on gp120 binding to immobilized mAb 412d; parameters: species or system HIV-1; conditions: peptide at 166 μM; gp120 BaL 100 nM with sCD4
Protocol: (§2) The interaction of the tyrosine-sulfated V2 peptide with the 412d-binding site was further characterized by surface plasmon resonance (SPR).
(§3) Surface plasmon resonance. Recombinant gp120 from HIV-1 BaL (at 100 nM) obtained from the NIH AIDS Reagent Program was pre-incubated with or without a 2-fold molar excess of two-domain sCD4 (at 200 nM) and passed over a Biacore CM5 sensor surface in the presence or absence of the indicated peptides (at 166 μM) for 2 min at 25 μl/min in HBS supplemented with 3 mM EDTA and 0.005% Tween-20 followed by a 2 min dissociation phase using a Biacore 3000 biosensor (Biacore, Inc.). Surfaces were regenerated after each cycle by a brief injection of 4.5M MgCl2.

[10] = tested on: gp120 (BaL) binding to mAb F105; test: Surface plasmon resonance, peptide effect on gp120 binding to control mAb F105; parameters: species or system HIV-1; conditions: peptide at 166 μM; specificity control
Protocol: as §2, §3

## CC[C@H](C)[C@H](NC(=O)[C@H](CC(=O)O)NC(=O)[C@H](CC(C)C)NC(=O)[C@H](CCC(=O)O)NC(=O)[C@H](Cc1ccc(OS(=O)(=O)O)cc1)NC(=O)[C@H](Cc1ccccc1)NC(=O)[C@H](CC(C)C)NC(=O)[C@H](C)NC(=O)[C@H](Cc1ccc(OS(=O)(=O)O)cc1)NC(=O)[C@H](CCC(=O)O)NC(=O)[C@H](CCCCN)NC(=O)[C@H](CCC(N)=O)NC(=O)[C@@H](NC(=O)[C@@H](N)CCCCN)C(C)C)C(=O)N[C@H](C(=O)N1CCC[C@H]1C(=O)N[C@H](C(=O)N[C@@H](CC(=O)O)C(=O)O)[C@@H](C)CC)C(C)C [pV2α-Tys] (H-KVQKE[sY]ALF[sY]ELDIVPID-OH)
[1]
  IC50: 15 µM
[2]
  effect on cell viability: no negative effects

## CC[C@H](C)[C@H](NC(=O)[C@H](CC(=O)O)NC(=O)[C@H](CC(C)C)NC(=O)[C@H](CCC(=O)O)NC(=O)[C@H](Cc1ccc(O)cc1)NC(=O)[C@H](Cc1ccccc1)NC(=O)[C@H](CC(C)C)NC(=O)[C@H](C)NC(=O)[C@H](Cc1ccc(O)cc1)NC(=O)[C@H](CCC(=O)O)NC(=O)[C@H](CCCCN)NC(=O)[C@H](CCC(N)=O)NC(=O)[C@@H](NC(=O)[C@@H](N)CCCCN)C(C)C)C(=O)N[C@H](C(=O)N1CCC[C@H]1C(=O)N[C@H](C(=O)N[C@@H](CC(=O)O)C(=O)O)[C@@H](C)CC)C(C)C [pV2α] (H-KVQKEYALFYELDIVPID-OH)
[3]
  Kd: 0.0009 µM
[3]; read-out: koff of gp120 binding to immobilized peptide
  koff: 6.4e-05 s⁻¹
[4]
  koff: 0.013 s⁻¹
[2]
  effect on cell viability: no negative effects

## [Na+].[O-][Cl+2]([O-])[O-] [sodium chlorate]
[5]
  effect on gp120 tyrosine sulfation: totally abrogated gp120 sulfation
[6]
  effect on cell viability: no negative effects
[6]; listed as NaClO3
  effect on cell viability: no adverse effects
[7]
  effect on neutralization sensitivity of HIV-1 BaL ΔV2: nor did it alter

## pCCR5-Tys: tyrosine-sulfated peptide derived from the CCR5 N-terminus (DYQVSSPIYDINYYTSE; also: tyrosine-sulfated, sites not given here)
[8]
  inhibition of virion capture by mAb 412d: specifically inhibited
[9]
  inhibition of binding of surface-bound mAb 412d to CD4-activated gp120: blocked
[10]
  inhibition of gp120 binding to mAb F105: lack of inhibition
